Format in all cases: functional
For assay [1], the species on record is Mus musculus. Briefly: Maximum reduction in plasma triglyceride levels in KKA mice at a dosage of 0.005% in diet.
The species entered for assay [2] is Mus musculus. In words: (§1) Effective dose to reduce 25% of glucose levels in blood. The settings on record: Mus musculus, Blood.
Assay [3] is filed under the species Mus musculus. Briefly: Maximum reduction in blood glucose levels in KKA mice at a dosage of 0.005% in diet.
The species entered for assay [4] is Mus musculus. Briefly: Effective dose to reduce 25% of triglyceride levels in plasma.
The species entered for assay [5] is Mus musculus. Briefly: Maximum reduction in plasma triglyceride levels in KKA mice at a dosage of 0.001% in diet.
Assay [6] is filed under the species Mus musculus. In words: Maximum reduction in blood glucose levels in KKA mice at a dosage of 0.001% in diet.
The species named for assay [7] is Mus musculus. In words: Compound was tested for maximum reduction in plasma triglyceride levels in KKA mice at a dosage of 0.005% in diet.
Assay [8] is filed under the species Mus musculus. In words: Compound was tested for maximum reduction in plasma triglyceride levels in KKA mice at a dosage of 0.01% in diet.
For assay [9], the species on record is Mus musculus. Briefly: Compound was tested for maximum reduction in blood glucose levels in KKA mice at a dosage of 0.05% in diet.
The species named for assay [10] is Mus musculus. In words: Compound was tested for maximum reduction in plasma triglyceride levels in KKA mice at a dosage of 0.05% in diet.
The species named for assay [11] is Mus musculus. Briefly: Compound was tested for maximum reduction in blood glucose levels in KKA mice at a dosage of 0.01% in diet.
Assay [12] is described as follows: as §1. Particulars: Mus musculus.

Data on ten compounds can be found in ChEMBL document CHEMBL1125480, “Studies on antidiabetic agents. 11. Novel thiazolidinedione derivatives as potent hypoglycemic and hypolipidemic agents” (1992).

With `Cc1oc(-c2cccs2)nc1CCOc1ccc(CC2SC(=O)NC2=O)cc1` (stereo not given), the Reduction in [1] is listed as 72%; in assay [3], 51%; in [5], 41%; in [6], 50%. Besides, the ED25 in [2] came out at 0.09 mg/kg/day; in assay [4], 0.3 mg/kg/day.

With `Cc1oc(-c2ccccc2)nc1COc1ccc(CC2SC(=O)NC2=O)cc1` (stereo not given), the Reduction in assay [1] is listed as 44%; in assay [3], 21%; in [5], 17%; in assay [6], 23%. Also, the values for the ED25 in assay [2] and in [4] were 3 mg/kg/day and 5 mg/kg/day, respectively.

For `O=C1NC(=O)/C(=C/c2ccc(OCCc3csc(-c4ccccc4)n3)cc2)S1`, the Reduction in assay [1] is 57%; in assay [3] it was 57%; in assay [5], 44%; in assay [6] it was 49%. Also, the ED25 came out at 0.6 mg/kg/day in [2] and 1.3 mg/kg/day in assay [4].

For the compound `Cc1oc(-c2ccccc2)nc1C(O)COc1ccc(/C=C2\SC(=O)NC2=O)cc1` (stereo not given), the Reduction in [1] is recorded as 60%; in [3], 56%; in assay [5], 54%; in [6], 36%. In addition, the values for the ED25 in assay [2] and in [4] were 0.9 mg/kg/day and 0.3 mg/kg/day, respectively.

Turning to `O=C1NC(=O)C(Cc2ccc(OCc3csc(-c4ccccc4)n3)cc2)S1` (stereo not given), the ED25 in assay [2] turned out to be 6 mg/kg/day; in [4], 8 mg/kg/day. Further, the Reduction in assay [3] is 28%; in [5], 3%; in assay [6] it was 11%; in [7], 32%.

As for `CCc1oc(-c2ccccc2)nc1CCOc1ccc(CC2SC(=O)NC2=O)cc1` (stereo not given), the Reduction in [1] is 79%; in [3], 55%; in assay [5], 55%; in assay [6], 49%. Further, the figures for the ED25 in assay [2] and in assay [4] were 0.3 mg/kg/day and 0.6 mg/kg/day, respectively.

Take `O=C1NC(=O)C(Cc2ccc(OCCc3coc(-c4ccccc4)n3)cc2)S1` (stereo not given): the ED25 in assay [2] is 0.3 mg/kg/day; in [4], 0.5 mg/kg/day. For the same compound, the Reduction was 51% in assay [8], 58% in assay [9], 68% in assay [10] and 41% in assay [11].

As to `O=C1NC(=O)C(Cc2ccc(OCCc3csc(-c4ccccc4)n3)cc2)S1` (stereo not given), the Reduction in assay [1] is given as 63%; in assay [3], 52%; in assay [5], 54%; in [6], 39%. Also, the ED25 came to 0.5 mg/kg/day in [2] and 0.3 mg/kg/day in assay [4].

Turning to `Cc1nc(C(O)COc2ccc(/C=C3\SC(=O)NC3=O)cc2)c(C)o1` (stereo not given), the Reduction in assay [1] came out at 61%; in [3], 59%; in assay [5], 37%; in [6], 26%. Further, the ED25 in assay [2] amounted to 2.2 mg/kg/day; in assay [4], 0.8 mg/kg/day.

Turning to `Cc1oc(-c2ccco2)nc1CCOc1ccc(CC2SC(=O)NC2=O)cc1` (stereo not given), the Reduction is 69% in assay [1], 50% in assay [3], 41% in assay [5] and 50% in [6]. The ED25 in assay [12] amounted to 0.4 mg/kg/day; in assay [4], 0.9 mg/kg/day.
